# Key:
# [1] = tested on: RPE and PRP dual cell aggregates; experiment: Dual cell aggregate formation in thaw medium with or without Y-27632 (phase contrast); assay type: cell-based, human; details: Y-27632 in thaw medium (RPE-MM), 1 RPE:8 PRP, compared with thaw without Y-27632
# Procedure: (§1) To characterize a dual cell aggregate culture, RPE were thawed in RPE-MM and PRP were thawed in RMN. If PRP were thawed as aggregates, either all aggregates or a sample of aggregates were TrypLE dissociated. Both cell types were counted using a ViCELL XR. RPE and PRP were combined at a desired cell ratio and cell number in RPE-MM and placed in a ULA T-75 flask on a belly dancer at 16-18 RPM to permit aggregate formation. Alternately, aggregates could be formed in a PBS mini vessel. To test in vivo function, some aggregates were transplanted into the subretinal space of a rat retina two days after aggregate formation. Surgery was performed to analyze the retinas. Aggregates or rat retinas were cryosectioned and analyzed by immunocytochemistry.
# Dual cell aggregate formation without Y-27632 in thaw medium: As a first attempt to co-culture RPE and PRP as aggregates, RPE and PRP were thawed as single cells at a ratio of 1 RPE:3 PRP. Phase contrast images were captured at various time points (FIG. 1). […] However, after 21 and 69 days, aggregates had formed and appeared to be fairly regular, though skewed to a high RPE ratio, relative to PRP. Based on this experiment, all future experiments used the ROCK inhibitor Y-27632 when thawing RPE and maintained a lower RPE:PRP ratio. […]
# [2] = tested on: RPE and PRP dual cell aggregates; experiment: Effect of PGE-2 on long-term dual cell aggregate culture (immunocytochemistry); assay type: cell-based, human; details: with vs without PGE2
# Procedure: as §1
# Effect of PGE-2 on long-term dual cell aggregate culture: During RPE culture, Prostaglandin E2 (PGE-2) is added to the culture medium from day 54 to day 68 of differentiation. PGE-2 is a hormone that stimulates RPE primary cilia formation and polarization, and its effect was tested on the dual cell aggregates (FIGS. 3-5). With this formulation of RPE and PRP, RPE generally appeared to form a majority of the aggregate, even after one month of culture. PRP did appear to mature after two months, indicated by the presence of PRPH2, an outer segment marker.
SMILES,aggregate formation efficiency [1],"PRP organization in dual cell aggregates ([2]; one month after aggregate formation, initial ratio 1 RPE:8 PRP)",RPE organization or rod formation in dual cell aggregates ([2]; one month of culture)
C[C@@H](N)[C@H]1CC[C@H](C(=O)Nc2ccncc2)CC1 [Condition Y-27632],qualitatively more efficient,,
"CCCCC[C@H](O)/C=C/[C@H]1[C@H](O)CC(=O)[C@@H]1C/C=C\CCCC(=O)O [PGE2, Prostaglandin E2]",,Differences in PRP organization were apparent,did not show striking differences
